Results published in ChEMBL document CHEMBL1129171, “BMS-187257, a potent, selective, and novel heterocyclic 3 adrenergic receptor agonist” (Bioorg Med Chem Lett, 1996).
pEC50, pKi: −log10 of the molar value. Activity calls are given as the source filed them. The calls are words filed in the database; no cut-off is given here.

Columns and labels:
[1] = molecular target: T1, Beta-3 adrenergic receptor (Homo sapiens, UniProt P13945); test: stimulation of adenylyl cyclase activity in CHO-beta-3 adrenergic receptor cell membrane; expressed as maximal cyclase activity as a fraction of (-)-isoproterenol (IA = 1).; type: functional
Target sequence in this assay (P13945 whole entry, looked up): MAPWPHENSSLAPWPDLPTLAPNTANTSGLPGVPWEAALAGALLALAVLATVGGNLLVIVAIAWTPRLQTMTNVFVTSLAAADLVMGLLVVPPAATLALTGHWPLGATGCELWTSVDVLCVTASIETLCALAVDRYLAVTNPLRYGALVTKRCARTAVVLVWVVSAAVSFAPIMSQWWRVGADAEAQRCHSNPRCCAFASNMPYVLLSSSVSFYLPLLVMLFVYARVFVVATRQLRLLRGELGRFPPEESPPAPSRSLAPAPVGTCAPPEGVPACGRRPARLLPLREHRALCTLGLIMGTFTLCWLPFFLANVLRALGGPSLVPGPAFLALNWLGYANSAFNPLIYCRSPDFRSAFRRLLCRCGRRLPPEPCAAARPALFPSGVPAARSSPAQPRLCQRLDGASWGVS

[2] = molecular target: T1, Beta-3 adrenergic receptor; test: Compound was tested for its ability to stimulate adenylyl cyclase activity in CHO-beta-3 adrenergic receptor cell membrane.; type: functional
Target sequence in this assay (P13945 whole entry): as the sequence (P13945 whole entry, looked up) above

[3] = molecular target: T1, Beta-3 adrenergic receptor; test: Compound was tested for its binding affinity against beta3 adrenergic receptor in CHO cell membrane using [125I]iodocyanopindolol as the radioligand.; type: cell membranes
Target sequence in this assay (P13945 whole entry): as the sequence (P13945 whole entry, looked up) above

[4] = molecular target: Beta-1 adrenergic receptor (Homo sapiens, UniProt P08588); test: Compound was tested for its binding affinity against Beta-1 adrenergic receptor in CHO cell membrane using [125I]iodocyanopindolol as the radioligand.; type: cell membranes
Beta-1 adrenergic receptor, sequence (P08588 whole entry): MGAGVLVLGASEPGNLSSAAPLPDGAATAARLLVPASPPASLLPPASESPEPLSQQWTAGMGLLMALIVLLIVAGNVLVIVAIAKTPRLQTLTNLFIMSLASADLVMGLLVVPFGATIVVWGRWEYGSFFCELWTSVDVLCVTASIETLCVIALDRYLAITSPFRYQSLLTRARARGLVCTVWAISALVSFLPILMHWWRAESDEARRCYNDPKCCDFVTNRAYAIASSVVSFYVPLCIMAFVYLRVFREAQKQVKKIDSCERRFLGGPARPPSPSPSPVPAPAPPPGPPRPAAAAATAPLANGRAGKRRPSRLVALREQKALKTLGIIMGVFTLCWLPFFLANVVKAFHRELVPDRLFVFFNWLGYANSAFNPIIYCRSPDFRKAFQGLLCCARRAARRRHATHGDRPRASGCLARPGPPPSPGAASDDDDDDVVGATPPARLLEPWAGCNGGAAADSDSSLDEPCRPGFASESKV

[5] = molecular target: T1, Beta-3 adrenergic receptor; test: Compound was tested for its ability to stimulate adenylyl cyclase activity in CHO Beta-3 adrenergic receptor cell membrane.; type: functional
Target sequence in this assay (P13945 whole entry): as the sequence (P13945 whole entry, looked up) above

[6] = molecular target: Beta-2 adrenergic receptor (Homo sapiens, UniProt P07550); test: biochemical
Beta-2 adrenergic receptor, sequence (P07550 whole entry): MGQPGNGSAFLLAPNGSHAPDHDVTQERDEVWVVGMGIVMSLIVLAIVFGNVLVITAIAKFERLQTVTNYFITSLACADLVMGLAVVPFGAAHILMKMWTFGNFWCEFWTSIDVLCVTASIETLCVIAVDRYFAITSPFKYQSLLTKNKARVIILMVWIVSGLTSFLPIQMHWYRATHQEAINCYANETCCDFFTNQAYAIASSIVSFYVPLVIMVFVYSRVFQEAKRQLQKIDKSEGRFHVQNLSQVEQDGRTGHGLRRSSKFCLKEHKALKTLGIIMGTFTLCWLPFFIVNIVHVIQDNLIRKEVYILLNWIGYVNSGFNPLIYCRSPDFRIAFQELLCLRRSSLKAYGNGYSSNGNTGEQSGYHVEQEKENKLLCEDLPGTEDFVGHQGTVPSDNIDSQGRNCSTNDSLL
Description: Compound was tested for its binding affinity against beta2 adrenergic receptor in CHO cell membrane using [125I]iodocyanopindolol as the radioligand.

| Compound | IA [1] | pEC50 [2] | pKi [3] | pKi [4] | pEC50 [5] | pKi [6] |
| --- | --- | --- | --- | --- | --- | --- |
| O=C(O)COc1ccc(OCCNC[C@H](O)COc2ccccc2)cc1 | 0.71 | 6.26 | 6.28 |  |  |  |
| C[C@H](Cc1ncc(CCC(=O)O)s1)NC[C@H](O)COc1ccccc1 | 0.56 |  | 5.45 | 5.46 | 5.56 | 5.91 |
| C[C@H](Cc1ncc(CCC(=O)O)s1)NCC(O)c1cccc(Cl)c1 (stereo partly specified) | 0.39 |  | 3.84 | 4.24 | 4.56 | 4.94 |
| C[C@H](Cc1ncc(CCCC(=O)O)s1)NC[C@H](O)COc1ccccc1 | 0.72 |  | 6.12 | 5.89 | 6.20 | 5.80 |
| C[C@H](Cc1ncc(CCCCC(=O)O)s1)NC[C@H](O)COc1ccccc1 | inactive |  | 6.41 | 6.36 |  | 6.82 |
| C[C@H](Cc1ccc(OCC(=O)O)cc1)NC[C@H](O)c1cccc(Cl)c1 | 0.67 |  |  |  |  |  |
| C[C@H](Cc1ncc(CCCC(=O)O)s1)NCC(O)c1cccc(Cl)c1 (stereo partly specified) |  |  | 4.44 | 5.19 |  | 4.86 |
